The results in this text go back to US3966735A, “1-3-(4-Fluorobenzoyl)propyl-4-substituted phenoxy ethyl piperazine” (Kali-Chemie Aktiengesellschaft, priority 1973, dated 1976).

SMILES strings stand for the structures.

The subject of one series is mouse. As to the kind of experiment: Test of prolongation of narcosis induced by hexobarbital (Test 2). Type of series: in vivo. The following applies: peroral, 30 minutes before 65 mg/kg hexobarbital i.v., dose required to double the sleeping time, read-out: Narcotic prolongation effect (Test 2). The method, then:
2. Test of prolongation of narcosis induced by hexobarbital: In accordance with this test, the test substance is administered perorally to a mouse. After an interval of 30 minutes, a dose of 65 milligrams of hexobarbital per kilogram of body weight is administered intravenously. The result is reported as the dose of the test compound that was required to double the period of sleeping time that was induced by the hexobarbital.

Series [1] can be described thus: Acute toxicity, single oral administration (Test 1). The note with it: mouse, in vivo, fasting white mice, NMRI strain, Litchfield and Wilcoxon. How it is done:
1. Acute toxicity: The acute toxicity is determined by a single oral administration to fasting white mice of the NMRI strain. The […] lethal dose (LD50) is computed in accordance with the method described by J.T. Litchfield and F. Wilcoxon in Journal of Pharmacology and Experimental Therapeutics, vol. 96, page 99 (1949).

The subject of series [2] is female mice of the NMRI strain. As to the kind of experiment: Squirrel-cage test for determining effect of drugs on motility (Test 4). The series is classed as in vivo, mouse (female mice of the NMRI strain). The following applies: peroral, 20 mice, revolutions over 5 hours, compared with peroral chlordiazepoxide. The method, then: 4. Squirrel-cage test for determining effect of drugs on motility: The test substance is administered perorally to female mice of the NMRI strain that had previously not been exercised in a squirrel cage. Twenty mice are placed into the revolving cylinder of the squirrel cage and they are allowed to run freely therein. The number of revolutions through which the cylinder in the squirrel cage spins every 15 minutes is noted during the course of an extended period of 5 hours, when the test is discontinued. The average of the number of revolutions per minute is calculated and represented on a graph. These values are then compared with […] and the results are reported in milligrams per kilogram of body weight.

The subject of series [3] is female mice of the NMRI strain. As to the kind of experiment: Test of sedative effectiveness (Test 3). Type of series: in vivo, mouse (female mice of the NMRI strain). The following applies: Mus musculus, ip, 0.5 h; intraperitoneal, on awakening from 100 mg/kg hexobarbital i.p.; dose required to induce sleep for 30 minutes; read-out: Effective sedative dose ED50 (Test 3). How it is done:
3. Test of sedative effectiveness: In this test is measured the period of narcosis that is induced by the test substance following a period of narcosis induced by hexobarbital. A dose of 100 milligrams of hexobarbital per kilogram of body weight is administered intraperitoneally to female mice of the NMRI strain. As soon as the mouse revives or awakens from the narcosis induced by the dose of hexobarbital, a measured dose of the test substance is administered intraperitoneally. The period between the administration of the test substance and the second revival of the mouse is then noted. From the length of this second period is calculated the dose of the test substance that was required to induce sleep for a period of 30 minutes and this dose is referred to as the effective sedative dose (ED50).

A word on the LD50: it is the dose at which mortality reaches 50%. A lower LD50 goes with a more toxic substance. Usually ED50 stands for the dose that gives a 50% effect, or the effect in half of the subjects. On to `Cl.Cl.N#Cc1ccc(OCCN2CCN(CCCC(=O)c3ccc(F)cc3)CC2)cc1` [Substance 1, 1-[3-(4-Fluorobenzoyl)propyl]-4-[2-(4-cyanophenoxy)ethyl]-piperazine dihydrochloride], for which the ED (2-fold sleeping time) in the series with mouse was 10 mg/kg. For the same molecule, the LD50 in series [1] was determined as 215 mg/kg. Besides, the “Squirrel cage motility test versus 21.5 mg/kg chlordiazepoxide (Test 4)” value in series [2] is 0.7 mg/kg. In addition, the ED50 in series [3] is 21.5 mg/kg.

Take `Cl.Cl.O=C(CCCN1CCN(CCSc2ccc(Cl)cc2)CC1)c1ccc(F)cc1` [Substance 2, 1-[3-(4-Fluorobenzoyl)propyl]-4-[2-(4-chlorophenylthio)-ethyl]piperazine dihydrochloride]: the ED (2-fold sleeping time) in the series on mouse was found to be 20 mg/kg. In addition, the LD50 in series [1] is more than 1470 mg/kg. In series [2], the “Squirrel cage motility test versus 21.5 mg/kg chlordiazepoxide (Test 4)” value is more than 10 mg/kg. The ED50 in series [3] amounted to 30 mg/kg.

Regarding `CCC(=O)c1ccc(OCCN2CCN(CCCC(=O)c3ccc(F)cc3)CC2)c(Cl)c1.Cl.Cl` [Substance 3, 1-[3-(4-Fluorobenzoyl)propyl]-4-[2-(4-propionyl-2-chlorophenoxy)ethyl]piperazine dihydrochloride], in the series with mouse, the ED (2-fold sleeping time) was 20 mg/kg. This molecule had an LD50 in series [1] of 860 mg/kg. Moreover, in series [2], the “Squirrel cage motility test versus 21.5 mg/kg chlordiazepoxide (Test 4)” value is given as 1.5 mg/kg. Besides, the ED50 in series [3] came out at 14 mg/kg.

As for `Cc1ccc(OCCN2CCN(CCCC(=O)c3ccc(F)cc3)CC2)c([N+](=O)[O-])c1.Cl.Cl` [Substance 4, 1-[3-(4-Fluorobenzoyl)propyl]-4-[2-(4-methyl-2-nitrophenoxy)ethyl]piperazine dihydrochloride], in the series with mouse, the ED (2-fold sleeping time) stood at 20 mg/kg. The LD50 in series [1] worked out at 1720 mg/kg. Further, the ED50 in series [3] was 46 mg/kg.

`COc1cc(C)ccc1OCCN1CCN(CCCC(=O)c2ccc(F)cc2)CC1.Cl.Cl` [Substance 5, 1-[3-(4-Fluorobenzoyl)propyl]-4-[2-(4-methyl-2-methoxyphenoxy)ethyl]piperazine dihydrochloride]: the ED (2-fold sleeping time) with mouse is 46 mg/kg. In addition, the LD50 in series [1] was 458 mg/kg. Besides, in series [2], the “Squirrel cage motility test versus 21.5 mg/kg chlordiazepoxide (Test 4)” value is given as 3.2 mg/kg. The ED50 in series [3] was 7 mg/kg.

Regarding `Cc1ccc([N+](=O)[O-])cc1OCCN1CCN(CCCC(=O)c2ccc(F)cc2)CC1.Cl.Cl` [Substance 6, 1-[3-(4-Fluorobenzoyl)propyl]-4-[2-(5-nitro-2-methylphenoxy)ethyl]piperazine dihydrochloride], the ED (2-fold sleeping time) in the series with mouse worked out at 32 mg/kg. Further, the LD50 in series [1] is more than 1470 mg/kg. In addition, the ED50 in series [3] came to 23 mg/kg.

Turning to `CS(=O)(=O)c1ccc(OCCN2CCN(CCCC(=O)c3ccc(F)cc3)CC2)cc1.Cl.Cl` [Substance 7, 1-[3-(4-Fluorobenzoyl)propyl]-4-[2-(4-methylsulfonylphenoxy)ethyl]piperazine dihydrochloride], the ED (2-fold sleeping time) with mouse was determined as 46 mg/kg. Further, the LD50 in series [1] worked out at 825 mg/kg. Moreover, the “Squirrel cage motility test versus 21.5 mg/kg chlordiazepoxide (Test 4)” value in series [2] is 6.8 mg/kg. For the same molecule, the ED50 in series [3] came out at 30 mg/kg.

Turning to `Cl.Cl.O=C(CCCN1CCN(CCSc2ccc([N+](=O)[O-])cc2)CC1)c1ccc(F)cc1` [Substance 8, 1-[3-(4-Fluorobenzoyl)propyl]-4-[2-(4-nitrophenylthio)-ethyl]piperazine dihydrochloride], the ED (2-fold sleeping time) with mouse stood at 6 mg/kg. This molecule came in with an LD50 in series [1] of 499 mg/kg. Also, the “Squirrel cage motility test versus 21.5 mg/kg chlordiazepoxide (Test 4)” value in series [2] stood at 6.8 mg/kg. Further, the ED50 in series [3] amounted to 30 mg/kg.
